Data reported in paper PMC9145754, “Novel Soloxolone Amides as Potent Anti-Glioblastoma Candidates: Design, Synthesis, In Silico Analysis and Biological Activities In Vitro and In Vivo” (Pharmaceuticals, 2022).

Experiments:
U118 cells = experiment: Trans-well motility (CIM-Plate, xCELLigence); assay type: cell-based, human; conditions: U118, 12 at 100 nM, starting after 20 h
Description: To evaluate the ability of tryptamide 12 to suppress the migration potential of glioblastoma cells, two independent approaches were undertaken, including assessment of cell movement on a 2D surface (scratch assay) and through a trans-well membrane (CIM-Plate).
To assess the trans-well motility of glioblastoma cells, U118 cells were seeded in quadruplicate at 2 × 10^4 cells/well in the upper chamber of a CIM-Plate in FBS-free DMEM in the presence or absence of 12 at 100 nM. To induce trans-well motility of the cells, DMEM containing 10% FBS was placed in the lower chamber of the CIM-Plate. After that, the electrical impedance of the sensor electrodes mounted at the lower side of the porous membrane separating the upper and lower chambers of the CIM-plate was further measured using an xCELLigence RTCA DP instrument (ACEA Biosciences Inc., San Diego, CA, USA) every 1 h for 48 h.

U118 glioblastoma cells = experiment: Annexin V-APC/PI apoptosis assay, U118; assay type: cell-based, human; conditions: for apoptosis, % of U118 cells: 12 at 4 µM
Description: To quantify the percentage of cells undergoing apoptosis, glioblastoma U87 and U118 cells were seeded in 6-well plates at 2.8 × 10^5 cells/well in complete growth medium and incubated at standard conditions overnight followed by treatment with 12 at 4 µM for 24 h. Thereafter, the cells were harvested by trypsinization (TrypLE Express (Gibco, USA)) and centrifugation at 400 g for 5 min, washed with PBS and stained with 5 µL of Annexin V-APC (Sony Biotechnology Inc., San Jose, CA, USA) and 10 µL of propidium iodide (PI) (Invitrogen, Waltham, MA, USA) for 15 min at room temperature in the dark. After the incubation time, the cells were analyzed using a NovoCyte Flow Cytometer (ACEA Biosciences Inc., San Diego, CA, USA). For each sample, 10,000 events were acquired.

[1] = Brain accumulation of 12 by HPLC–MS/MS; assay type: in vivo, Balb/C nude mice; conditions: seven injections
Description: (seven injections were performed in total) and brain tissue was collected 48 h after the last injection of 12 followed by a high-performance liquid chromatography–tandem mass spectrometry (HPLC–MS/MS) analysis of the obtained samples (Figure 3D). This treatment regimen was chosen due to its common usage in the evaluation of antitumor activity of various low-molecular weight compounds in xenograft murine models. […] Before the HPLC–MS/MS analysis, chromatographic conditions and mass spectrometer parameters for detecting both semisynthetic triterpenoid 12 and the internal standard in the multiple reaction monitoring (MRM) mode were optimized. […]
To estimate the content of 12 in mouse brain tissue, a set of calibrators was prepared followed by their preparation protocol. The obtained samples were analyzed using the developed HPLC–MS/MS method and a calibration curve was built over the range of concentrations of 10–1000 ng/g. […] The validation of the method for quantification of 12 in mouse brain tissue and investigation of its pharmacokinetics will be the objectives of our next study. […]
To prepare calibrators, mouse brain tissue samples taken from three healthy untreated animals were pooled and homogenized as described above. […] The obtained supernatants were transferred into vial inserts and analyzed. To quantify 12 in experimental animal brain tissue, a sample weighing c.a. […]

brain tumor cells = experiment: MTT cytotoxicity, values summarised over brain tumor cells; assay type: cell-based; conditions: range over U87, U118, KELLY, Neuro2a; read-out: IC50 against brain malignant cells
Description: To evaluate the antitumor activity of the synthesized soloxolone amides in brain tumor cells, the cytotoxicity of compounds 4–12, predicted as BBB-permeable (Figure 3), was further analyzed in human glioblastoma U87 and U118 cells, as well as human neuroblastoma KELLY and murine neuroblastoma Neuro2a cells.
The cells in the exponential growth phase were seeded in quadruplicate in 96-well plates at a density of 1 × 10^4 cells/well for HeLa, U87, U118, KELLY and Neuro2a cells; 1.5 × 10^4 cells/well for HuTu-80 cells; 2 × 10^4 cells/well for B16 cells; and 7 × 10^3 cells/well for hFF3 fibroblasts. Cells were incubated under standard conditions overnight followed by their treatment with the investigated compounds (1–20 µM) for 24 h. Then, 10 µL of MTT solution was added to the cells to a final concentration of 0.5 mg/mL and plates were placed under standard conditions for 3 h followed by an aspiration of MTT-containing medium and a dissolution of formazan crystals with 100 µL of DMSO. The absorbance of each well was read at test and reference wavelengths of 570 and 620 nm, respectively, on a Multiscan RC plate reader (Thermo LabSystems, Helsinki, Finland).

Structure (SMILES): CC1(C)C(=O)C(C#N)=C[C@]2(C)C3=CC(=O)[C@@H]4[C@@H]5C[C@@](C)(C(=O)NCCc6c[nH]c7ccccc67)CC[C@]5(C)CC[C@@]4(C)[C@]3(C)CC[C@@H]12 [compound 12]
- ability of cells to cross the porous membrane of the CIM-Plate (U118 cells): significantly suppressed
- apoptosis, % of U118 cells (U118 glioblastoma cells; 6 h): 11.7%
- apoptosis, % of U118 cells (U118 glioblastoma cells; 18 h): 34.4%
- apoptosis, % of U118 cells (U118 glioblastoma cells; 24 h): 41.5%
- number of necrotic cells (U118 glioblastoma cells; U118, different samples (2 and 4 µM; 6–24 h)): ≤ 10%
- concentration of 12 in brain tissue of tumor-bearing mice ([1]; U87 tumor-bearing nude mice, 20 mg/kg i.p.): 118 ng/g
- concentration of 12 in brain tissue ([1]; nude mice, 50 mg/kg i.p., thrice a week, 48 h after last injection): 490 ng/g
- IC50 (brain tumor cells): 1600 to 1900 nM
